This is an account of results in ChEMBL document CHEMBL1201862, “PubChem BioAssay data set” (2004).

Test systems include NCI-H226; Hs-578T; SF-268; SW-620; COLO 205; SK-MEL-5; Malme-3M; SNB-75; CAKI-1; MDA-N; A549; M14; SK-MEL-28; SNB-19; HOP-62; NCI/ADR-RES; HOP-92; SK-OV-3; 786-0; HCT-116.
Common to all, as to assay: NCI-60 cell line screen, 48 h

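Values below derive from 48-hour exposures of cells grown in 96-well plates, with endpoints linearly interpolated between the two concentrations bracketing the appropriate inhibition level. Abbreviation: GI50, concentration required for 50% inhibition of growth.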 Active and inactive are the calls of the source. Rule as the data show it: active = GI50 up to about 1.1 µM and inactive = higher. Where a SMILES comes first, the peptide text is derived from it. [ ]: non-standard residue; d: D form. The star is where a group is joined. ξ: configuration not given here. X4 = COc1ccc(C(N*)c2ccc(OC)cc2)cc1; NMeF = CN[C@@H](Cc1ccccc1)C(=O)O; NMeD = CN[C@@H](CC(=O)O)C(=O)O; NMeV = CN[C@H](C(=O)O)C(C)C; ξNMeV = CNC(C(=O)O)C(C)C; Boc = CC(C)(C)OC(=O)*; ξNMeA = CNC(C)C(=O)O; ξV = CC(C)C(N)C(=O)O Some results are limits rather than exact numbers.

For the molecule `CC(C)(C)COC1C2(OCCO2)C2CCC1(C)C2(C)C` (stereo unspecified), the GI50 was 27.4 µM (inactive) in the test on NCI-H226; 18.8 µM (inactive) with Hs-578T; 50.2 µM (inactive) with SF-268; 19.7 µM (inactive) in the test with SW-620; 28.6 µM (inactive) with COLO 205; 30.3 µM (inactive) in the test on SK-MEL-5. Besides, the GI50 with Malme-3M is 29 µM (inactive); in the test on SNB-75, 24.1 µM (inactive); in the test on CAKI-1, 40.1 µM (inactive); in the test with MDA-N, 43.2 µM (inactive); in the test with A549, 23.6 µM (inactive); in the test on M14, 44 µM (inactive). The GI50 is 87.1 µM (inactive) in the test with SK-MEL-28; 20.6 µM (inactive) in the test with SNB-19; 22.1 µM (inactive) in the test on HOP-62; 42 µM (inactive) with NCI/ADR-RES; 28.1 µM (inactive) with HOP-92; 66.2 µM (inactive) in the test with SK-OV-3. In addition, the GI50 with 786-0 was 19.4 µM (inactive).
For the molecule `COc1ccc(C(NC(=O)C[C@@H](C(=O)N(C)C(C)C(=O)O)N(C)C(=O)[C@@H]2CCCN2C(=O)[C@H](C(C)C)N(C)C(=O)C(C(C)C)N(C)C(=O)[C@H](Cc2ccccc2)N(C)C(=O)C(NC(=O)OC(C)(C)C)C(C)C)c2ccc(OC)cc2)cc1` (stereo partly specified) (Boc-[ξV][NMeF][ξNMeV][NMeV]P[NMeD](X4)[ξNMeA]-OH), the GI50 in the test with NCI-H226 was 7.64 µM (inactive); with Hs-578T, 2.56 µM (inactive); in the test with SF-268, 7.53 µM (inactive); in the test on SW-620 it was 8.18 µM (inactive); in the test with COLO 205, 20.4 µM (inactive); in the test on SK-MEL-5, 6.52 µM (inactive). The GI50 with Malme-3M is 14.4 µM (inactive); in the test on SNB-75, 4.24 µM (inactive); with CAKI-1, 29.6 µM (inactive); in the test with MDA-N, 12.5 µM (inactive); with HCT-116, 13.1 µM (inactive); in the test on A549 it was > 37.5 µM (inactive). Further, the GI50 in the test with M14 was 11.8 µM (inactive); in the test on SK-MEL-28, 7.62 µM (inactive); in the test on SNB-19, 22.4 µM (inactive); in the test on HOP-62, 13.4 µM (inactive); in the test on NCI/ADR-RES, > 37.5 µM (inactive); with HOP-92, 8.26 µM (inactive). Also, the GI50 with SK-OV-3 is > 37.5 µM (inactive); with 786-0, 21.3 µM (inactive).
For the molecule `C=CCSc1nc2ccccc2c(=O)n1Cc1ccco1`, the GI50 in the test with NCI-H226 was > 100 µM (inactive); in the test with Hs-578T it was > 100 µM (inactive); in the test with SF-268, > 100 µM (inactive); with SW-620, > 100 µM (inactive); in the test with COLO 205, > 100 µM (inactive); in the test with SK-MEL-5, 45 µM (inactive). Besides, the GI50 was > 100 µM (inactive) with Malme-3M; 89.1 µM (inactive) in the test on SNB-75; > 100 µM (inactive) with CAKI-1; > 100 µM (inactive) with MDA-N; 82 µM (inactive) in the test with HCT-116; 78.9 µM (inactive) in the test on A549. Further, the GI50 in the test with M14 is > 100 µM (inactive); in the test on SK-MEL-28, > 100 µM (inactive); in the test on SNB-19, > 100 µM (inactive); in the test on HOP-62, > 100 µM (inactive); in the test with NCI/ADR-RES, 39.4 µM (inactive); with HOP-92 it was 86.3 µM (inactive). For the same molecule, the GI50 with SK-OV-3 and in the test on 786-0 was > 100 µM (inactive) throughout.
On to `CCCCCCCCCCCCCCCC(=O)OCC1OC(OC)C(NC(=O)N(CCCl)N=O)C(O)C1O` (stereo unspecified), for which the GI50 in the test with NCI-H226 is 15.5 µM (inactive); in the test with Hs-578T it was 23 µM (inactive); in the test on SF-268, 3.34 µM (inactive); in the test with SW-620 it was 9.48 µM (inactive); in the test with COLO 205, 19.2 µM (inactive); in the test with SK-MEL-5, 21.1 µM (inactive). The GI50 in the test on Malme-3M is 20.9 µM (inactive); with SNB-75 it was 7 µM (inactive); in the test with CAKI-1, 14.5 µM (inactive); with MDA-N it was 15.1 µM (inactive); in the test on HCT-116, 13 µM (inactive); with A549, 9.68 µM (inactive). For the same molecule, the GI50 in the test with M14 was 16.8 µM (inactive); in the test with SK-MEL-28, 28.5 µM (inactive); with SNB-19, 14.8 µM (inactive); with HOP-62 it was 8.04 µM (inactive); in the test with NCI/ADR-RES, 13.9 µM (inactive); in the test on HOP-92 it was 17.4 µM (inactive). The GI50 with SK-OV-3 is 21.8 µM (inactive); in the test with 786-0 it was 2.01 µM (inactive).
As for `NC(=O)C(c1ccccc1)N1OC2C(=O)N(c3cccc4ccccc34)C(=O)C2C1c1c2ccccc2c(Cl)c2ccccc12` (stereo unspecified), the GI50 in the test on NCI-H226 was 6.25 µM (inactive); with Hs-578T, 18.6 µM (inactive); in the test on SF-268 it was 9.1 µM (inactive); in the test with SW-620 it was 3.15 µM (inactive); in the test on COLO 205 it was 7.85 µM (inactive); with SK-MEL-5, 5.06 µM (inactive). Besides, the GI50 in the test with Malme-3M was 11.6 µM (inactive); in the test with SNB-75, 8.97 µM (inactive); with CAKI-1, 5.28 µM (inactive); in the test on MDA-N, 2.38 µM (inactive); in the test on HCT-116 it was 1.23 µM (inactive); in the test with A549 it was 13.9 µM (inactive). The GI50 in the test on M14 is 7.03 µM (inactive); with SK-MEL-28 it was 12.8 µM (inactive); in the test on SNB-19 it was 8.22 µM (inactive); in the test with HOP-62 it was 11 µM (inactive); with NCI/ADR-RES, 5.15 µM (inactive); in the test on HOP-92 it was 9.27 µM (inactive). For the same molecule, the values for the GI50 with SK-OV-3 and with 786-0 were 19 µM (inactive) and 10.2 µM (inactive), respectively.
As for `CC(O)=NC(Cc1ccc2ccccc2c1)C(O)=NC(Cc1ccc(Cl)cc1)C(O)=NC(Cc1c[nH]c2ccccc12)C(O)=NC(CO)C(O)=NC(Cc1ccc(O)cc1)C(O)=NC(CCCN=C(N)N)C(O)=NC(CC(C)C)C(O)=NC(CCCN=C(N)N)C(=O)N1CCCC1C(O)=NC(C)C(=N)O` (stereo unspecified), the GI50 in the test on NCI-H226 is 30.1 µM (inactive); with Hs-578T it was 47.4 µM (inactive); in the test on SF-268 it was > 100 µM (inactive); in the test with SW-620, 76.7 µM (inactive); in the test with COLO 205 it was 26.3 µM (inactive); with SK-MEL-5, 34.5 µM (inactive). Besides, the GI50 with Malme-3M was 99.5 µM (inactive); with SNB-75, 38.1 µM (inactive); in the test on CAKI-1 it was 54.7 µM (inactive); in the test on MDA-N, 30.4 µM (inactive); in the test with A549, 42.6 µM (inactive); with M14, 59.8 µM (inactive). Besides, the GI50 with SNB-19 was 48.9 µM (inactive); with HOP-62 it was 85.7 µM (inactive); in the test on NCI/ADR-RES it was 60.3 µM (inactive); in the test on HOP-92, 35.5 µM (inactive); with SK-OV-3, 43.5 µM (inactive); in the test with 786-0, 35.8 µM (inactive).
On to `CC1=NN(C(=O)c2ccccc2O)C(=O)/C1=C/c1ccc([N+](=O)[O-])cc1`, for which the GI50 with NCI-H226 is 0.459 µM (active); with Hs-578T, 0.348 µM (active); in the test with SF-268 it was 0.0855 µM (active); with SW-620, 0.738 µM (active); in the test with COLO 205, 16.5 µM (inactive); with SK-MEL-5, 0.239 µM (active). Besides, the GI50 in the test on Malme-3M was 0.247 µM (active); with SNB-75 it was 0.248 µM (active); with CAKI-1, 0.455 µM (active); in the test with MDA-N, 0.413 µM (active); in the test with HCT-116 it was 0.116 µM (active); with A549 it was 0.0931 µM (active). Moreover, the GI50 was 0.437 µM (active) in the test on M14; 31.6 µM (inactive) in the test on SK-MEL-28; 0.0782 µM (active) in the test with SNB-19; 0.536 µM (active) in the test with HOP-62; 0.664 µM (active) with NCI/ADR-RES; 0.411 µM (active) in the test on HOP-92. Besides, the GI50 in the test on SK-OV-3 was 0.0966 µM (active); with 786-0, 0.299 µM (active).
`CCOC(=O)n1ccc2c(C(=O)OC)c(C(=O)OC)cc(/C(=C/C(=O)OC)C(=O)OC)c21`: the GI50 in the test on NCI-H226, in the test on Hs-578T, in the test on SF-268, in the test on SW-620, in the test with COLO 205 and with SK-MEL-5 was > 100 µM (inactive) throughout. The GI50 was > 100 µM (inactive) in the test with Malme-3M; > 100 µM (inactive) in the test with SNB-75; > 100 µM (inactive) with CAKI-1; 83.6 µM (inactive) in the test with MDA-N; 89.3 µM (inactive) in the test on HCT-116; > 100 µM (inactive) with A549. Further, the GI50 in the test with M14 is > 100 µM (inactive); in the test with SK-MEL-28 it was > 100 µM (inactive); in the test with SNB-19, > 100 µM (inactive); in the test on HOP-62, > 100 µM (inactive); with NCI/ADR-RES, > 100 µM (inactive); with HOP-92, 34.3 µM (inactive). Also, the GI50 in the test on SK-OV-3 and with 786-0 was > 100 µM (inactive) in each case.
Turning to `O=C1Oc2cc(O)cc(/C=C/c3ccc(O)cc3)c2[C@@]12c1c(O)cc(O)cc1OC2c1cccc(O)c1` (stereo partly specified), the GI50 with NCI-H226 is 11.1 µM (inactive); in the test on Hs-578T, 20.5 µM (inactive); with SF-268, 36.6 µM (inactive); in the test on COLO 205, 26 µM (inactive); in the test on SK-MEL-5, 12.5 µM (inactive); with Malme-3M, 33.4 µM (inactive). For the same molecule, the GI50 is 52.2 µM (inactive) with SNB-75; 83.8 µM (inactive) with CAKI-1; 26.1 µM (inactive) with MDA-N; 29 µM (inactive) in the test with HCT-116; 54 µM (inactive) in the test with A549; 28.6 µM (inactive) in the test with M14. In addition, the GI50 in the test with SK-MEL-28 was 37.3 µM (inactive); in the test on SNB-19, 30.7 µM (inactive); in the test with HOP-62 it was 20.3 µM (inactive); with NCI/ADR-RES, 67.1 µM (inactive); with HOP-92, 31.2 µM (inactive); in the test with SK-OV-3 it was 30.8 µM (inactive). Moreover, the GI50 in the test with 786-0 was 24.5 µM (inactive).
